ChEMBL document CHEMBL1134571, “Photochemical synthesis of N-arylbenzophenanthridine selective estrogen receptor modulators (serms)” (J Med Chem, 2001)
The source made the active and inactive calls. The calls are words filed in the database; no cut-off is given here.

Key:
MCF7 [1] = assay: Inhibition of 17-beta-estradiol induced MCF-7 cell proliferation; type: functional, cell-based; settings: Homo sapiens
MCF7 [2] = assay: Inhibition of 17-beta-estradiol induced MCF-7 cell proliferation; NA=not active; type: functional, cell-based; settings: Homo sapiens
[3] = target: Estrogen receptor (Homo sapiens) (UniProt Q92731+P03372); assay: Relative binding affinity(RBA) as displacement of [3H]17-beta-estradiol from MCF-7 cell lysate;NA=not active; type: cell-based
MCF7 [4] = assay: Inhibition of 17-beta-estradiol induced MCF-7 cell proliferation;NA=not active; type: functional, cell-based; settings: Homo sapiens

Question: With `Oc1ccc2c(c1)CN(c1ccc(OCCN3CCCCC3)cc1)c1c-2ccc2cc(O)ccc12` as the compound, how does the IC50 (MCF7 [1]) read?
Answer: 1 nM

Question: For `COc1ccc2c(c1)CN(c1ccc(OCCN3CCCCC3)cc1)c1c-2ccc2cc(OC)ccc12`, which IC50 (MCF7 [1]) is on record?
Answer: 19 nM

Question: How did the IC50 (MCF7 [1]) turn out when `COc1ccc2c(c1)CN(c1ccc(OCCN3CCCCC3)cc1)C1=C2CCc2cc(OC)ccc21` was run?
Answer: 287 nM

Question: `C[C@]12CC[C@@H]3c4ccc(O)cc4CC[C@H]3[C@@H]1CC[C@@H]2O` was tested. Which NA (MCF7 [2]) did it give?
Answer: inactive

Question: Which NA [3] does the source give for `COc1ccc2c(ccc3c4ccc(OC)cc4c(=O)n(-c4ccc(OCCN5CCCCC5)cc4)c23)c1` here?
Answer: inactive

Question: What about the NA (MCF7 [4]) of the same compound?
Answer: inactive

Question: With `O=c1c2cc(O)ccc2c2ccc3cc(O)ccc3c2n1-c1ccc(OCCN2CCCCC2)cc1` as the compound, how does the NA (MCF7 [4]) read?
Answer: inactive

Question: How did the IC50 (MCF7 [1]) turn out when `O=c1c2cc(O)ccc2c2c(n1-c1ccc(OCCN3CCCCC3)cc1)-c1ccc(O)cc1CC2` was run?
Answer: 128 nM
